According to patent publication US10059667B2, “Antidiabetic compounds” (MERCK SHARP & DOHME CORP., priority 2014, dated 2018):

Tests used:
Type in all cases: cell-based
Human GPR40 [1] = biological target: T1, Human GPR40 (Homo sapiens (Human), UniProt O14842); experiment: Inositol Phosphate Turnover (IP1) Assay 2, HEK cells stably expressing human GPR40, CisBio IP-One kit; conditions: HEK cells stably expressing human GPR40, 384-well
Experimental: (§1) Human and mouse GPR40 stable cell-lines were generated in CHO cells stably expressing NFAT BLA (Beta-lactamase). A human GPR40 stable cell-line was generated in HEK cells stably expressing the aequorin expressing reporter. The expression plasmids were transfected using lipofectamine (Life Technologies) following manufacturer's instructions. Stable cell-lines were generated following drug selection.
The assay was performed in 384-well format. HEK cells stably expressing human GPR40 were plated at 15,000 cells per well in growth medium (DMEM/10% fetal calf serum). Cell plates were then incubated 16 hours at 37 degrees in a 5% CO2 incubator.
Measurement of Inositol Phosphate Turnover (IP1) was performed using the CisBio IP-One kit (Part number 62IPAPEB). After the 16 hour incubation, the cells were washed with HEPES buffer and 10 ul of stimulation buffer (prepared as described in the kit) was added to each well. In a separate plate, compounds were diluted in DMSO (400-fold over the final concentration in the assay well) and 25 nl was acoustically transferred to the appropriate well in the assay cell plate.
The plates were then incubated for 60 minutes at 37 degrees. 10 ul of detection buffer (also prepared as described in the IP-One kit) was added to each well and the plates were incubated for 60 minutes in the dark. The plates were then read in a Perkin Elmer EnVision or equivalent reader able to measure FRET. Fluorescent ratio of emission at 665 and 620 nm was then converted to IP1 concentration by back calculating from an IP1 standard curve prepared at the time of the assay.

Human GPR40 [2] = biological target: T1, Human GPR40; experiment: Inositol Phosphate Turnover (IP1) Assay 1, HEK cells stably expressing human GPR40, 3H-inositol SPA; conditions: HEK cells stably expressing human GPR40, 96-well
How it was run: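 HEK cells stably expressing human GPR40, labelled 18 h with 3H-myo-inositol in inositol-free medium with 0.4% human or mouse albumin. LiCl added 20 min at 37 degrees, then compound 60 min at 37 degrees; formic acid lysates counted by YSi SPA beads for inositol phosphates.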

Human GPR40 [3] = biological target: T1, Human GPR40; experiment: FLIPR assay, agonist-induced calcium mobilization in GPR40/CHO NFAT BLA cells
Experimental: as §1
FLIPR (Fluorimetric Imaging Plate Reader, Molecular Devices) assays were performed to measure agonist-induced calcium mobilization of the stable clones. For the FLIPR assay, one day before assay, GPR40/CHO NFAT BLA cells were seeded into black-wall-clear-bottom 384-well plates (Costar) at 1.4×10e4 cells/20 μL medium/well. The cells were incubated with 20 μl/well of the assay buffer (HBSS, 0.1% BSA, 20 mM HEPES, 2.5 mM probenecid, pH 7.4) containing 8 μM fluo-4, AM, 0.08% pluronic acid at room temperature for 100 minutes. Fluorescence output was measured using FLIPR. Compounds were dissolved in DMSO and diluted to desired concentrations with assay buffer. 13.3 μL/well of compound solution was added.

T1 sequence (O14842 whole entry): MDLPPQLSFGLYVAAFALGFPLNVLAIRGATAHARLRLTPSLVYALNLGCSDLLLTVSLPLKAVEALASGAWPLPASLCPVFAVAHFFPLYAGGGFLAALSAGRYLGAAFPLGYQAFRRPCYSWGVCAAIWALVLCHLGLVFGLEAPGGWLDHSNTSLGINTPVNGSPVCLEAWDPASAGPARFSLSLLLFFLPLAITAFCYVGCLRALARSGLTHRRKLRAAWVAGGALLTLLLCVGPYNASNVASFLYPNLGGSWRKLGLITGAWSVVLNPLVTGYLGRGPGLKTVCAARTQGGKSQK

COc1cc(C2CC(COc3cccc([C@H](C4CC4)[C@H](C)C(=O)O)c3)C2)c(F)cn1 (single isomer, unassigned) [Example 90]
EC50 (Human GPR40 [1]): 96 nM

COc1cc(C2CC(COc3cccc([C@H](C4CC4)[C@H](C)C(=O)O)c3)C2)c(F)cn1 (single isomer, unassigned) [Example 91]
EC50 (Human GPR40 [1]): 7.4 nM

C[C@H](C(=O)O)[C@H](c1cccc(OC2CN(Cc3cc(C(F)(F)F)ccc3C(F)(F)F)C2)c1)C1CC1 [Example 32]
EC50 (Human GPR40 [2]): 764 nM | EC50 (Human GPR40 [3]): 59 nM

C[C@H](C(=O)O)[C@H](c1cccc(OC[C@H]2CCN(Cc3cc(C(F)(F)F)ccc3C(F)(F)F)C2)c1)C1CC1 [Example 33]
EC50 (Human GPR40 [2]): 158 nM | EC50 (Human GPR40 [3]): 5.3 nM

C[C@H](C(=O)O)[C@H](c1cccc(OCC2CCN(Cc3cc(C(F)(F)F)ccc3C(F)(F)F)C2)c1)C1CC1 (stereo partly drawn) [Example 34]
EC50 (Human GPR40 [2]): 273 nM | EC50 (Human GPR40 [3]): 10 nM

O=C(O)C[C@H](c1cccc(OC2CCN(Cc3cc(C(F)(F)F)ccc3Cl)C2)c1)C1CC1 (stereo partly drawn) [Example 42]
EC50 (Human GPR40 [2]): 1120 nM | EC50 (Human GPR40 [3]): 94 nM

CC1(COc2cccc([C@@H](CC(=O)O)C3CC3)c2)CCN(Cc2cc(C(F)(F)F)ccc2C(F)(F)F)C1 (stereo partly drawn) [Example 43]
EC50 (Human GPR40 [2]): 952 nM | EC50 (Human GPR40 [3]): 231 nM

O=C(O)C[C@H](c1cccc(OCC2CCN(Cc3cc(C(F)(F)F)ccc3C(F)(F)F)C2)c1)C1CC1 (stereo partly drawn) [Example 47]
EC50 (Human GPR40 [2]): 560 nM | EC50 (Human GPR40 [3]): 42 nM

O=C(O)C[C@H](c1cccc(OC2CCN(Cc3cc(C(F)(F)F)ccc3C(F)(F)F)CC2)c1)C1CC1 [Example 48]
EC50 (Human GPR40 [2]): 1020 nM | EC50 (Human GPR40 [3]): 142 nM

O=C(O)C[C@H](c1cccc(OCC2CN(Cc3cc(C(F)(F)F)ccc3C(F)(F)F)C2)c1)C1CC1 [Example 49]
EC50 (Human GPR40 [2]): 251 nM | EC50 (Human GPR40 [3]): 8.3 nM

O=C(O)C[C@H](c1cccc(OCC2CN(Cc3ccccc3OC(F)(F)F)C2)c1)C1CC1 [Example 50]
EC50 (Human GPR40 [2]): 5030 nM | EC50 (Human GPR40 [3]): 55 nM

CC(c1cc(F)ccc1Cl)N1CC(COc2cccc([C@@H](CC(=O)O)C3CC3)c2)C1 (stereo partly drawn) [Example 51]
EC50 (Human GPR40 [2]): 449 nM | EC50 (Human GPR40 [3]): 58 nM

CC(c1ccccc1Cl)N1CC(COc2cccc([C@@H](CC(=O)O)C3CC3)c2)C1 (stereo partly drawn) [Example 52]
EC50 (Human GPR40 [2]): 5640 nM | EC50 (Human GPR40 [3]): 162 nM

O=C(O)C[C@H](c1cccc(OCC2CN(Cc3c(F)cccc3C(F)(F)F)C2)c1)C1CC1 [Example 53]
EC50 (Human GPR40 [2]): 4570 nM | EC50 (Human GPR40 [3]): 389 nM

CC(c1cc(C(F)(F)F)ccc1C(F)(F)F)N1CC(COc2cccc([C@@H](CC(=O)O)C3CC3)c2)C1 (stereo partly drawn) [Example 54]
EC50 (Human GPR40 [2]): 27 nM | EC50 (Human GPR40 [3]): 0.6 nM

CC(c1ccccc1C(F)(F)F)N1CC(COc2cccc([C@@H](CC(=O)O)C3CC3)c2)C1 (stereo partly drawn) [Example 55]
EC50 (Human GPR40 [2]): 904 nM | EC50 (Human GPR40 [3]): 7.3 nM

CC(c1cc(Cl)ccc1Cl)N1CC(COc2cccc([C@@H](CC(=O)O)C3CC3)c2)C1 (stereo partly drawn) [Example 56]
EC50 (Human GPR40 [2]): 347 nM | EC50 (Human GPR40 [3]): 23 nM

CC(c1cc(C(F)(F)F)ccc1C1CC1)N1CC(COc2cccc([C@@H](CC(=O)O)C3CC3)c2)C1 (stereo partly drawn) [Example 58]
EC50 (Human GPR40 [2]): 366 nM | EC50 (Human GPR40 [3]): 113 nM

Cc1ccc(C(F)(F)F)cc1C(C)N1CC(COc2cccc([C@@H](CC(=O)O)C3CC3)c2)C1 (stereo partly drawn) [Example 59]
EC50 (Human GPR40 [2]): 777 nM | EC50 (Human GPR40 [3]): 439 nM

CC(c1cc(C(F)(F)F)ccc1Cl)N1CC(COc2cccc([C@@H](CC(=O)O)C3CC3)c2)C1 (stereo partly drawn) [Example 60]
EC50 (Human GPR40 [2]): 527 nM | EC50 (Human GPR40 [3]): 184 nM

COc1cccc(C2CC2COc2cccc([C@@H](CC(=O)O)C3CC3)c2)c1 (stereo partly drawn) [Example 61, (3 S)-3-cyclopropyl-3-(3-((2-(3-methoxyphenyl)cyclopropyl)methoxy)phenyl)propanoic acid]
EC50 (Human GPR40 [2]): 651 nM | EC50 (Human GPR40 [3]): 24 nM

COc1cc(C2CC(COc3cccc([C@H](C4CC4)[C@H](C)C(=O)O)c3)C2)c(F)cn1 (stereo partly drawn) [Example 87]
EC50 (Human GPR40 [2]): 23 nM | EC50 (Human GPR40 [1]): 13 nM
